Patent US9943528B2 (MAPREG, priority 2016, dated 2018)

Experiments:
[1] = molecular target: T1, human progesterone receptor (PR) (Homo sapiens, UniProt P06401); test: Test of progesterone receptor agonist activity (MMTV-luciferase transactivation in transfected HEK293T cells); type: cell-based; settings: 24 hours, increasing amounts, FIG. 1
T1 construct: expressed in transfected cells; host or cells: HEK293T
T1 sequence (P06401 1-933): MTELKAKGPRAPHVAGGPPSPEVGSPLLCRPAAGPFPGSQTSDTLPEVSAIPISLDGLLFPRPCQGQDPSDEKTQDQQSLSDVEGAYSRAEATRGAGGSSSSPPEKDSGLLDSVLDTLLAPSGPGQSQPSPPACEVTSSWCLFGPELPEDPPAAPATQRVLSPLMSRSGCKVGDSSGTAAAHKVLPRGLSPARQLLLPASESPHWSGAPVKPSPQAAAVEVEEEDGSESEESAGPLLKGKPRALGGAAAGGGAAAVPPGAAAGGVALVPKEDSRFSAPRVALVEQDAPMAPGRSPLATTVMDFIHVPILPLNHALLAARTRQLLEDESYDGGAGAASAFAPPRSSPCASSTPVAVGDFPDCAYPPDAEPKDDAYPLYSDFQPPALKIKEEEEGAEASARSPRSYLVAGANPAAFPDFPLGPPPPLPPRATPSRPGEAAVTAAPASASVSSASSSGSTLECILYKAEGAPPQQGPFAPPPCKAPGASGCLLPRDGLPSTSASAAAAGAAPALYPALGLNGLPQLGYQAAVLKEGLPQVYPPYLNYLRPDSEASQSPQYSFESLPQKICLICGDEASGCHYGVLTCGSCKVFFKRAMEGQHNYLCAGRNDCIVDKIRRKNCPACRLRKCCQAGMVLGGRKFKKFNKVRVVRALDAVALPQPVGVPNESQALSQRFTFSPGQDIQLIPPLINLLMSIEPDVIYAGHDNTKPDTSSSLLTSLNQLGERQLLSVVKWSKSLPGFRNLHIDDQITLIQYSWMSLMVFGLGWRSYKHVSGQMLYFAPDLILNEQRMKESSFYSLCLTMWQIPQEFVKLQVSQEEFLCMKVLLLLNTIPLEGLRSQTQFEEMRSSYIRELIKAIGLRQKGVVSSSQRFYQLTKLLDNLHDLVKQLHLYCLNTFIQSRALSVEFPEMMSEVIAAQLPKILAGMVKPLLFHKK
Procedure: The main experimental setting used is the following: HEK293T cells were transiently transfected, using calcium phosphate precipitation technology, with expression vectors pSG5hPR (which permits expression of human progesterone receptor (PR)), pFC31-luc (contains the luciferase gene under the control of the MMTV promoter, which is in turn activated by binding of a progestin to progesterone receptor) and pcbetagal (which permits expression of betagalactosidase), and cultured during 24 hours with increasing amounts of various compositions:
Test of Progesterone Receptor Agonist Activity: Transfected Cells were Cultured with Increasing Amounts of Progesterone or 3-Methoxy-Pregnenolone

[2] = tested on: purified tubulin and MAP2; test: Activity: increase in optical density at 345 nm of purified tubulin and MAP2 with GTP; type: biochemical; settings: 37° C.
Procedure: Activity is measured by the increase in optical density at 345 nm of a mixture of purified tubulin and MAP2, incubated at 37° C. in the presence of GTP.

For CO[C@H]1CC[C@@]2(C)C(=CC[C@H]3[C@@H]4CC[C@H](C(C)=O)[C@@]4(C)CC[C@@H]32)C1 [MAP4343, 3β-methoxy-pregna-5-ene-20-one], the “progesterone receptor agonist activity (transactivation, expression of luciferase)” value [1] was “does not have progesterone receptor agonist activity” and the Activity [2] was 100% of PREG.
